# Assay results from patent US20040052837A1, “Lipid conjugated anti-cancer drugs and methods of use thereof” (priority 2002, published 2004).
# Like-named read-outs stand apart in the source and are kept apart here.
# Key:
# [1] = tested on: T27A cells; test: Inhibition of T27A cell proliferation by [3H]thymidine incorporation; type: cell-based, murine
# Protocol: The murine non-T non-B leukemia cell line T27A (ATCC, Rockville, Md., USA) was cultured in RPMI 1640 medium (Gibco/BRI, Gaithersburg, Md.) supplemented with 25 mM HEPES buffer, 2 mM glutamine, 100 U penicillin/ml, 100 μg streptomycin/ ml and 2 or 10% bovine calf serum (Hyclone, Logan, Utah) in a humidified 5% CO2 atmosphere. Cell viability was determined by Trypan blue exclusion.
# DHA (NuChek Prep, Elysan, Minn.) was introduced into RPMI 1640 medium supplemented with 1% (w/v) fatty acid-free bovine serum albumin (Sigma) as described by Spector and Hoak (33) with modifications we have reported (34).
# Liposomes were prepared fresh for each use. The bulk of the lipids was 18:0, 18:1 PC (up to 90 mol %), with 10 mol % 18:0, 18:1 PE added to augment fusion between liposomes and the cell-surface membrane. The control contained no additional lipids; the experimental groups contained up to an additional 15 mol % 18:0, 22:6 PC or up to 0.43 mol % 18:0, MTX-PC or 22:6, MTX-PC. The solvent was evaporated under nitrogen and the lipids dried under vacuum for 2 h. The lipids were rehydrated in RPMI medium, and multilamellar vesicles were prepared by vortexing 1 ml of lipids at a concentration of 2 mg/ml. Liposomes (small unilamellar vesicles) were created by sonicating the multilamellar vesicles for 15 min on ice under nitrogen with a Heat Systems W380 disruptor (Farmingdale, N.Y.) set at 1 s cycle time, 60% duty and 3-7% output. Liposome suspensions were centrifuged at low speed (3700 r.p.m.; 2300 g) to remove particulate material and sterile filtered through a 0.2-μm filter. An aliquot of each liposome preparation was tested by thin-layer chromatography to assure that hydrolysis had not occurred.
# All concentrations given are final concentrations in the wells. […] Control liposomes were made from 1 mM 18:0, 18:1 PC/ 18:0, 18:1 PE (9/1, mol:mol). After 6 h of incubation, 0.5 μCi/well of [^3H]thymidine (2 Ci/mmol; Amersham, Arlington Heights, Ill.) was added and the incubation continued for an additional 18 h. Cells were then harvested onto glass fiber filters (PHD Cell Harvester; Cambridge Technology, Watertown, Mass.) and the radioactivity present in DNA on the filters was measured by liquid scintillation counting.
# The IC50 for each agent alone was determined by non-linear curve fitting with the software package SigmaPlot (SPSS, Chicago, Ill.).
# [2] = tested on: several different cell types; conditions: variety of assays in vitro (11, 37-39); cited from earlier work
# [3] = (35); cited from earlier work
# [4] = tested on: human neoplastic cells; conditions: (1); cited from earlier work
# [5] = previous study (26); cited from earlier work
# [6] = lipid included in liposomes of 1 mM 18:0,18:1 PC/18:0,18:1 PE (9:1), 24 h, read-out: IC50, inhibition of proliferation
smiles,measurement,setting,value
"CCCCCCCCCCCCCCCCCC(=O)OC[C@H](COP(=O)([O-])OCC[N+](C)(C)C)OC(=O)CC[C@H](NC(=O)c1ccc(N(C)Cc2cnc3nc(N)nc(N)c3n2)cc1)C(=O)O [18:0, MTXγ-PC]",IC50,[1]; [6],2110 nM
"CC/C=C\C/C=C\C/C=C\C/C=C\C/C=C\C/C=C\CCC(=O)O [DHA, docosahexaenoic acid]",% of maximal proliferation,[1]; 220 μM DHA alone,57%
same,predicted % inhibition at 25 µM,"[1]; Mus musculus, [DHA] 25 μM",4.9%
same,predicted % inhibition at 50 µM,"[1]; Mus musculus, [DHA] 50 μM",9.8%
same,predicted % inhibition at 100 µM,"[1]; Mus musculus, [DHA] 100 μM",19.7%
same,predicted % inhibition at 150 µM,"[1]; Mus musculus, [DHA] 150 μM",29.5%
same,predicted % inhibition at 200 µM,"[1]; Mus musculus, [DHA] 200 μM",39.3%
same,IC50,"[1]; Mus musculus, albumin-bound DHA not conjugated to phospholipids, 24 h, 2% serum, read-out: IC50, inhibition of [3H]thymidine incorporation",211000 nM
same,IC50 with albumin delivery relative to IC50 for DHA delivered in ethanol,[1]; albumin versus ethanol delivery,about 5 times
"CN(Cc1cnc2nc(N)nc(N)c2n1)c1ccc(C(=O)N[C@@H](CCC(=O)O)C(=O)O)cc1 [MTX, methotrexate]",% of maximal proliferation,[1]; 30 nM MTX alone,52%
same,IC50,"[1]; Mus musculus, 24 h, read-out: IC50 (dose for 50% inhibition of proliferation)",30.6 nM
same,Inhibition (Predicted; %),[1]; [MTX] 2.7 nm,4.3%
same,Inhibition (Predicted; %),[1]; [MTX] 9.5 nm,15.2%
same,Inhibition (Predicted; %),[1]; [MTX] 16.5 nm,26.3%
same,Inhibition (Predicted; %),[1]; [MTX] 23.3 nm,37.2%
same,Inhibition (Predicted; %),[1]; [MTX] 26.7 nm,42.6%
same,range of inhibitory doses reported,[2],15 to 240 nM
same,pKa of α-carboxyl group,[3],3.35
same,level at which toxic,[4],20 nM
"CC/C=C\C/C=C\C/C=C\C/C=C\C/C=C\C/C=C\CCC(=O)OC[C@H](COP(=O)([O-])OCC[N+](C)(C)C)OC(=O)CC/C=C\C/C=C\C/C=C\C/C=C\C/C=C\C/C=C\CC [22:6, 22:6 PC, 1,2-didocosahexaenoyl-sn-glycero-3-phosphocholine]",direct cytotoxicity,[5],"comparable to 18:0, 22:6 PC"
"CC/C=C\C/C=C\C/C=C\C/C=C\C/C=C\C/C=C\CCC(=O)OC[C@H](COP(=O)([O-])OCC[N+](C)(C)C)OC(=O)CC[C@H](NC(=O)c1ccc(N(C)Cc2cnc3nc(N)nc(N)c3n2)cc1)C(=O)O [22:6, MTXγ-PC]",IC50,[1]; [6],1190 nM
same,"potency as inhibitor of cell proliferation relative to 18:0, MTXγ-PC","[1]; liposomes with up to 0.43 mol % (4.2 μM) MTXγ-PC, 24 h","more potent inhibitor of cell proliferation than 18:0, MTXγ-PC"
same,"inhibition relative to 18:0, MTXγ-PC","[1]; low concentrations, below 1.5 μM, in liposomes","significantly more inhibitory than 18:0, MTXγ-PC"
